The values that follow come from paper PMC2873402, “Discovery of High-Affinity Protein Binding Ligands – Backwards” (PLoS ONE, 2010).

Assay type in all cases: binding
The subject of experiment [1] is AKT2. The experiment in a line: IP of AKT isoforms spiked into A549 lysate: AKT2. To be noted: 250 ng of each isoform in 500 µg A549 lysate, Western Blot. On the procedure: This apparent specificity was investigated further by performing an IP using 250 ng of each isoform of AKT spiked into 500 µg of A-549 cell lysate.
(§1) For all IP experiments, either a 1 µM or 250 nM solution of biotin-conjugated synbody was captured on 20 µL of streptavidin coated paramagnetic M-280 Dynabeads (Life Technologies) according to the manufacturers protocol. Synbody coated beads were washed five times with 1 mL of 100 mM phosphate buffered saline containing 0.05% Tween-20 (PBST) and incubated overnight at 4°C with shaking in the desired amount of target protein in A549 cell lysate. For Kd determination experiments, serial dilutions of AKT1 or ABL1 were prepared in binding buffer. After binding, beads were washed five times with 1 mL of PBST and heated at 70°C in 20 µL of 1× LDS loading buffer (Invitrogen) for 10 minutes. The samples were analyzed by SDS-PAGE gel with Western Blot detection using the appropriate antibody and imaged on a GE Healthcare Typhoon Trio.
(In general: A western blot detects proteins with antibodies after separation by electrophoresis.)

In experiment [2] the target is T1, AKT1 (Homo sapiens, UniProt P31749). The experiment in a line: IP of AKT1 from solution, Western Blot. Also noted: purchased Life Technologies. To be noted: synbody with C-terminal Lys-Biotin on streptavidin magnetic beads, 89 nM to 0.7 nM AKT1, overnight, 4°C. The protocol:
The synbody was tested for its ability to bind native protein in solution. A variant of the synbody was prepared in which the C-terminal Cys was replaced with a Lys-Biotin. The synbody was used in an immunoprecipitation (IP) experiment in which it was bound to streptavidin magnetic beads and incubated overnight with 89 nM to 0.7 nM solutions of AKT1. The beads were washed extensively and the bound protein was eluted. Samples were run on a SDS-PAGE gel and detected by Western Blot with an anti-AKT1 monoclonal antibody (Figure 3B).
as §1

Experiment [3] addresses T1, AKT1. The experiment in a line: IP of AKT1 from pre-cleared A549 lysate with silver stain detection. Also noted: purchased Life Technologies. On the procedure:
However, to more rigorously test the specificity of the synbody, we reduced the molar ratio of synbody to protein to approximately 2 to 1 and performed an IP to examine other proteins that were non-specifically bound by the synbody. In this experiment, 400 ng of AKT1 (66.4 nM) was spiked into 100 and 500 µg of A549 cell lysate pre-cleared on streptavidin beads (Figure S3) and precipitated using streptavidin beads coated with 15 pmols of synbody. Synbody coated beads and uncoated streptavidin beads were incubated overnight, washed, and bound proteins were eluted. Elution samples were split with half of the sample analyzed by silver stain and half analyzed by Western Blot (Figure 3E).
as §1
Due to the high-level of A549 lysate protein binding to the magnetic beads used previously, we pre-cleared the cell lysate prior to IP. This was accomplished by overnight incubation of 1 mL of lysate (∼5 mg/mL) with 1 mL of streptavidin beads. The supernatant was removed and this lysate was used in subsequent experiments. […] One half of each elution sample was analyzed by SDS-PAGE followed by staining using a SNAP Silver Stain kit (Thermo Pierce) while the other half of the sample was analyzed by SDS-PAGE with Western Blot detection as before.

For experiment [4], the target named is T1, AKT1. The experiment in a line: IP of endogenous AKT1 from A549 lysate. To be noted: un-stimulated A549 lysate, 25 pmols synbody. Also noted: N-terminal vector leader of pEXP5-NT (6xHis + TEV site by own knowledge of the vector); made in house; host or cells: Expressway Mini Cell-Free Expression System (in vitro translation). On the procedure:
As a preliminary test of specificity, 200 ng of AKT1 (33.2 nM) was spiked into increasing amounts of cell lysate prepared from un-stimulated A549 lung epithelial cells and streptavidin beads coated with 25 pmols of synbody (7.6∶1 synbody-to-AKT1 ratio) were used to pull down AKT1 using the same IP procedure and Western Blot protocol as before.
as §1

For experiment [5], the target named is T1, AKT1. The experiment can be described thus: SPR screening against immobilized AKT1. To be noted: 100 nM synbody, Biacore T-100, CM5 amine coupling, 25°C immobilization, 90 s association, 240 s dissociation. Also noted: purchased Life Technologies. On the procedure:
(§2) The synbody (100nM concentration) was screened by Surface Plasmon Resonance (SPR) against immobilized AKT1 and GRP58 on a Biacore T-100 SPR. The synbody appeared to have high affinity for AKT1 and low affinity for GRP58 (Figure S2). To accurately determine the binding kinetics of the synbody-AKT1 complex, several concentrations of synbody were injected over a low-density surface of biotin-labeled AKT1 captured on a Neutratvidin SPR chip using a Biacore A-100.
(§3) SPR screening of the synbody against AKT1 and GRP58 was performed on a Biacore T-100 (GE Healthcare, Piscataway, NJ, USA). The series S sensor chip CM5, amine coupling reagents and HBS-EP were obtained from GE Healthcare. A standard amine immobilization protocol was performed at 25°C using NaHCO3 (10mM in 150mM NaCl, pH 4.5) as the immobilization buffer. The CM-5 dextran chip was activated by a 10 minute injection of a freshly prepared 1∶1 solution of 400 mM 1-ethyl-3-(3-dimethylaminopropyl)-carbodimide (EDC): 100 mM N-hydroxysuccimide (NHS) in water. The NHS-carboxy groups of the dextran surface were treated with a solution of AKT1 or GRP58 (25 µg/ml) in sodium acetate (pH 5.0) for 8 mins at a flow rate of 10 µl/min. Any residual active sites were then quenched by a 5 min pulse of ethylene diamine (1M, pH 8.5). […]
In general terms: In SPR one partner is held on a chip, and binding of the other changes the refractive index at the surface.

Experiment [6] has as its system GRP58 (protein disulfide-isomerase A3). The experiment can be described thus: SPR screening against immobilized GRP58. To be noted: 100 nM synbody, Biacore T-100, CM5 amine coupling, 25°C immobilization, 90 s association, 240 s dissociation. On the procedure: as §2, §3

Bridge positions count the residues as written; N and C are the ends. Ends that are not written are not given here. I, II: the chains in the order shown. * marks the point of attachment. StBu = CC(C)(C)S*

T1 sequence (P31749 whole entry): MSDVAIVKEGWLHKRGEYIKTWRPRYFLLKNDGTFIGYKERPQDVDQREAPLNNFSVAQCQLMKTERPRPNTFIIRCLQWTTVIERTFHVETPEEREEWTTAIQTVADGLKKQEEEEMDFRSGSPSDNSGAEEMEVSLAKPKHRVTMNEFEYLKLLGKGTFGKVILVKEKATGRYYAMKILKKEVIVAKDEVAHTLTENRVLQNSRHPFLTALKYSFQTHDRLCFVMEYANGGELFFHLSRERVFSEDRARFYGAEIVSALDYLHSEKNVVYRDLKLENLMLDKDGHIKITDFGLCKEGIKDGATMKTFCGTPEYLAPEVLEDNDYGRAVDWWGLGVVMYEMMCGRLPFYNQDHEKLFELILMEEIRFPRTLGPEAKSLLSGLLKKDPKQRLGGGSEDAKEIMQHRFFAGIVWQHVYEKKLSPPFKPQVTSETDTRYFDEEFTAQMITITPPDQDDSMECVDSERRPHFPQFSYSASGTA

“I: AHKVVPQRQIRHAYNRYGSGKC(StBu)-NH2 / II: FRGWAHIFFGPHVIYRGGSG (amide I:21-II:C) [synbody]”: in experiment [1], the “IP of AKT2 (isoform selectivity)” value is “relatively little”. Besides, the “IP of AKT1 from solution” value in experiment [2] is recorded as “bound AKT1 from solution”. In addition, the “proteins precipitated (silver stain)” value in experiment [3] (400 ng AKT1 (66.4 nM) in pre-cleared A549 lysate, 500 µg (5mg/ml), 15 pmols synbody (approx. 2:1)) was “AKT1 was precipitated along with two other prominent proteins”. The dominant band precipitated result in experiment [3] (400 ng AKT1 in 100 or 500 µg pre-cleared A549 lysate, Western Blot confirmation) is reported as “the dominant band precipitated by the synbody was AKT1”. Besides, the “specificity” value in experiment [3] (IP silver stain, A549 lysate) is “useful, though not perfect specificity”. The “precipitation of endogenous AKT1” value in experiment [4] is “precipitates the very low level endogenous AKT1 from the un-stimulated cell lysate”. Further, in experiment [5], the “affinity for AKT1 by SPR screening” value was “high affinity”. For the same substance, the “affinity for GRP58 by SPR screening” value in experiment [6] is reported as “low affinity”.
